# Measured values published in US6087355A, “Cephalosporin antibiotics” (Microcide Pharmaceuticals, Inc., priority 1996, dated 2000).
# Structures can show the parent of a compound that is named as a salt. Where two headings read alike, the source gives them in different places.
# Key:
# [1] = system: S. aureus Col8A(Meth^S)(lac^-); test: In vitro MIC, agar dilution; assay type: cell-based; conditions: S. aureus Col8A(Meth^S)(lac^-); for MIC: Staphylococcus aureus, read-out: minimum inhibitory concentration (MIC)
# Summary of the method: (§1)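 Two-fold dilutions (128 to ≤0.25 μg/mL, in duplicate) were poured into Mueller-Hinton agar. Log-phase broth cultures were spot-inoculated at about 10^4 cfu per spot and incubated 35-36°C for 16-20 hours; the MIC was the lowest concentration inhibiting growth. Col is a high-level PBP2a producer; Col 8A is its isogenic PBP2a-lacking partner.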
# [2] = system: S. aureus Col(Meth^R)(lac^-); test: In vitro MIC, agar dilution; assay type: cell-based; conditions: for MIC: Staphylococcus aureus, read-out: minimum inhibitory concentration (MIC)
# Summary of the method: as §1
# [3] = system: S. aureus strain ATCC 13709 (methicillin-susceptible); test: Murine model for lethal bacteremic peritonitis; assay type: in vivo, female Swiss-Webster mice; design: ED50: unit: mg/kg; conditions: SC, 72 h; for responders at 0.3125 mg/kg / responders at 0.625 mg/kg / responders at 2.5 mg/kg / responders at 5 mg/kg: read-out: Survivors; for responders at 1.25 mg/kg: read-out: Survivors (converted); for ED50: two equal doses, IP challenge
# Summary of the method: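 Female Swiss-Webster mice were challenged IP with an LD100 inoculum in 7% hog gastric mucin, then given test drug subcutaneously in twofold increments (0.01–512 mg/kg) as two equal doses at challenge and 2 h later, 10 mice per group. Survival was scored at 72 h; PD50 (total mg/kg) was derived by probit.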
# [4] = system: S. aureus PC1(Meth^S)(lac^+); test: In vitro MIC, agar dilution; assay type: cell-based; conditions: for MIC: Staphylococcus aureus, read-out: minimum inhibitory concentration (MIC)
# Summary of the method: (§2)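 Growth inhibition was scored after 16-20 h at 35-36 °C on Mueller-Hinton agar carrying serial two-fold drug concentrations (128 to ≤0.25 μg/mL). Inocula of ~10^4 cfu per spot came from 4-6 h broth cultures.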
# E. coli ATCC 25992 = test: In vitro MIC, agar dilution; assay type: cell-based; conditions: for MIC: Escherichia coli, ATCC25992, read-out: minimum inhibitory concentration (MIC)
# Summary of the method: as §2
# E. faecalis VanB(Van^R) = test: In vitro MIC, agar dilution; assay type: cell-based; conditions: for MIC: Enterococcus faecalis, read-out: minimum inhibitory concentration (MIC)
# Summary of the method: as §2
# [5] = system: S. aureus Spain #356(Meth^R); test: In vitro MIC, agar dilution; assay type: cell-based; conditions: for MIC: Staphylococcus aureus, read-out: minimum inhibitory concentration (MIC)
# Summary of the method: as §2
# E. faecium VanA(Van^R) = test: In vitro MIC, agar dilution; assay type: cell-based; conditions: for MIC: Enterococcus faecium, read-out: minimum inhibitory concentration (MIC)
# Summary of the method: as §2
# [6] = system: S. aureus ATCC 13709(Meth^S); test: In vitro MIC, agar dilution; assay type: cell-based; conditions: for MIC: Staphylococcus aureus, ATCC13709, S. aureus ATCC 13709(Meth^S), read-out: minimum inhibitory concentration (MIC)
# Summary of the method: as §2
# S. aureus ATCC 29213 = test: In vitro MIC, agar dilution; assay type: cell-based; conditions: for MIC: Staphylococcus aureus, ATCC29213, read-out: minimum inhibitory concentration (MIC)
# Summary of the method: as §2
# [7] = system: S. aureus ATCC 33593(Meth^R); test: In vitro MIC, agar dilution; assay type: cell-based; conditions: for MIC: Staphylococcus aureus, ATCC33593, read-out: minimum inhibitory concentration (MIC)
# Summary of the method: as §2
# E. faecium A491(Amp^R) = test: In vitro MIC, agar dilution; assay type: cell-based; conditions: for MIC: Enterococcus faecium, read-out: minimum inhibitory concentration (MIC)
# Summary of the method: as §2
# E. faecalis ATCC 29212 = test: In vitro MIC, agar dilution; assay type: cell-based; conditions: for MIC: Enterococcus faecalis, ATCC29212, read-out: minimum inhibitory concentration (MIC)
# Summary of the method: as §2
# P. aeruginosa ATCC 27853 = test: In vitro MIC, agar dilution; assay type: cell-based; conditions: for MIC: Pseudomonas aeruginosa, ATCC27853, read-out: minimum inhibitory concentration (MIC)
# Summary of the method: as §2
# [8] = system: S. aureus 76(Meth^R)(lac^+); test: In vitro MIC, agar dilution; assay type: cell-based; conditions: for MIC: Staphylococcus aureus, read-out: minimum inhibitory concentration (MIC)
# Summary of the method: as §2
# [9] = system: S. haemolyticus 05(Meth^R); test: In vitro MIC, agar dilution; assay type: cell-based; conditions: for MIC: Staphylococcus haemolyticus, read-out: minimum inhibitory concentration (MIC)
# Summary of the method: as §2
# E. faecium ATCC 35667 = test: In vitro MIC, agar dilution; assay type: cell-based; conditions: for MIC: Enterococcus faecium, ATCC35667, read-out: minimum inhibitory concentration (MIC)
# Summary of the method: as §2
# [10] = Staphylococcus aureus, ATCC13709, Dose 0.3125 mg/kg
# [11] = Staphylococcus aureus, ATCC13709, Dose 0.625 mg/kg
# [12] = Staphylococcus aureus, ATCC13709, Dose 1.25 mg/kg
# [13] = Staphylococcus aureus, ATCC13709, Dose 2.5 mg/kg
# [14] = Staphylococcus aureus, ATCC13709
# [15] = Staphylococcus aureus, ATCC13709, read-out: ED50
compound,measurement,setting,value
"CN(C)C(=O)[C@@H](N)CSCc1cnccc1SC1=C(C(=O)O)N2C(=O)[C@@H](NC(=O)/C(=N\O)c3nc(N)sc3Cl)[C@H]2SC1 [Cmpd 58, (7R)-7-[(Z)-2-(2-amino-5-chlorothiazol-4-yl)-2-(hydroxyimino)acetamido]-3-(3-(2R-2-N,N-dimethylcarboxamido-2-aminoethylthiomethyl)pyrid-4-ylthio)-3-cephem-4-carboxylate, trifluoroacetic acid salt]",MIC,[1],0.5 µg/mL
same,MIC,[2],4 µg/mL
same,responders at 0.3125 mg/kg,[3]; [10],10%
same,responders at 0.625 mg/kg,[3]; [11],10%
same,responders at 1.25 mg/kg,[3]; [12],20%
same,responders at 2.5 mg/kg,[3]; [13],50%
same,responders at 5 mg/kg,[3]; [14],50%
same,ED50,[3]; [15],4.1 mg/kg
same,MIC,[4],1 µg/mL
same,MIC,E. coli ATCC 25992,8 µg/mL
same,MIC,E. faecalis VanB(Van^R),0.5 µg/mL
same,MIC,[5],4 µg/mL
same,MIC,E. faecium VanA(Van^R),2 µg/mL
same,MIC,[6],0.5 µg/mL
same,MIC,S. aureus ATCC 29213,0.5 µg/mL
same,MIC,[7],2 µg/mL
same,MIC,E. faecium A491(Amp^R),16 µg/mL
same,MIC,E. faecalis ATCC 29212,0.5 µg/mL
same,MIC,P. aeruginosa ATCC 27853,> 32 µg/mL
same,MIC,[8],4 µg/mL
same,MIC,[9],4 µg/mL
same,MIC,E. faecium ATCC 35667,1 µg/mL
"NC(=O)[C@@H](N)CSCc1cnccc1SC1=C(C(=O)O)N2C(=O)[C@@H](NC(=O)/C(=N\O)c3nc(N)sc3Cl)[C@H]2SC1 [Cmpd 59, (7R)-7-[(Z)-2-(2-amino-5-chlorothiazol-4-yl)-2-(hydroxyimino)acetamido]-3-(3-(2R-2-carboxamido-2-aminoethylthiomethyl)pyrid-4-ylthio)-3-cephem-4-carboxylate, trifluoroacetic acid salt]",MIC,[1],0.25 µg/mL
same,MIC,[2],2 µg/mL
same,responders at 0.3125 mg/kg,[3]; [10],40%
same,responders at 0.625 mg/kg,[3]; [11],60%
same,responders at 1.25 mg/kg,[3]; [12],40%
same,responders at 2.5 mg/kg,[3]; [13],40%
same,responders at 5 mg/kg,[3]; [14],100%
same,ED50,[3]; [15],0.81 mg/kg
same,MIC,[4],0.5 µg/mL
same,MIC,E. coli ATCC 25992,8 µg/mL
same,MIC,E. faecalis VanB(Van^R),0.5 µg/mL
same,MIC,[5],4 µg/mL
same,MIC,E. faecium VanA(Van^R),2 µg/mL
same,MIC,[6],0.13 µg/mL
same,MIC,S. aureus ATCC 29213,0.5 µg/mL
same,MIC,[7],2 µg/mL
same,MIC,E. faecium A491(Amp^R),16 µg/mL
same,MIC,E. faecalis ATCC 29212,0.5 µg/mL
same,MIC,P. aeruginosa ATCC 27853,> 32 µg/mL
same,MIC,[8],2 µg/mL
same,MIC,[9],4 µg/mL
same,MIC,E. faecium ATCC 35667,1 µg/mL
"Nc1nc(/C(=N/O)C(=O)N[C@@H]2C(=O)N3C(C(=O)O)=C(Sc4ccncc4SCCNC=O)CS[C@H]23)c(Cl)s1 [Cmpd 64, (7R)-7-[(Z)-2-(2-amino-5-chlorothiazol-4-yl)-2-(hydroxyimino)acetamido]-3-(3-(N-formylaminoethylthio)pyrid-4-ylthio)-3-cephem-4-carboxylate, trifluoroacetic acid salt]",MIC,[1],0.25 µg/mL
same,MIC,[2],2 µg/mL
same,responders at 0.3125 mg/kg,[3]; [10],10%
same,responders at 0.625 mg/kg,[3]; [11],10%
same,responders at 1.25 mg/kg,[3]; [12],40%
same,responders at 2.5 mg/kg,[3]; [13],40%
same,responders at 5 mg/kg,[3]; [14],80%
same,ED50,[3]; [15],2.27 mg/kg
same,MIC,[4],0.5 µg/mL
same,MIC,E. coli ATCC 25992,8 µg/mL
same,MIC,E. faecalis VanB(Van^R),0.5 µg/mL
same,MIC,[5],4 µg/mL
same,MIC,E. faecium VanA(Van^R),2 µg/mL
same,MIC,[6],0.25 µg/mL
same,MIC,S. aureus ATCC 29213,0.25 µg/mL
same,MIC,[7],2 µg/mL
same,MIC,E. faecium A491(Amp^R),16 µg/mL
same,MIC,E. faecalis ATCC 29212,0.25 µg/mL
same,MIC,P. aeruginosa ATCC 27853,> 32 µg/mL
same,MIC,[8],4 µg/mL
same,MIC,[9],4 µg/mL
same,MIC,E. faecium ATCC 35667,1 µg/mL
"(7R)-7-[(Z)-2-(aminothiazol-4-yl)-2-(hydroxyimino)acetamido]-3-[(methylaminoethylaminoethylthiomethyl)-1,2,3-thiadiazol-5-ylthio]-3-cephem-4-carboxylate, trifluoroacetic acid salt [Cmpd 11]",minimum inhibitory concentration (MIC),[1],1 µg/mL
same,minimum inhibitory concentration (MIC),[2],4 µg/mL
same,Survivors,[3]; Dose 0.156 mg/kg,1/10
same,Survivors,[3]; Dose 0.3125 mg/kg,1/10
same,Survivors,[3]; Dose 0.625 mg/kg,3/10
same,Survivors,[3]; Dose 1.25 mg/kg,5/10
same,Survivors,[3]; Dose 2.5 mg/kg,6/10
same,ED50,[3],0.96 mg/kg
same,minimum inhibitory concentration (MIC),[4],1 µg/mL
same,minimum inhibitory concentration (MIC),E. coli ATCC 25992,8 µg/mL
same,minimum inhibitory concentration (MIC),E. faecalis VanB(Van^R),0.5 µg/mL
same,minimum inhibitory concentration (MIC),[5],8 µg/mL
same,minimum inhibitory concentration (MIC),E. faecium VanA(Van^R),4 µg/mL
same,minimum inhibitory concentration (MIC),[6]; S. aureus ATCC 13709(Meth^S),0.5 µg/mL
same,minimum inhibitory concentration (MIC),S. aureus ATCC 29213,0.5 µg/mL
same,minimum inhibitory concentration (MIC),[7],4 µg/mL
same,minimum inhibitory concentration (MIC),E. faecium A491(Amp^R),> 32 µg/mL
same,minimum inhibitory concentration (MIC),E. faecalis ATCC 29212,0.25 µg/mL
same,minimum inhibitory concentration (MIC),P. aeruginosa ATCC 27853,> 32 µg/mL
same,minimum inhibitory concentration (MIC),[8],8 µg/mL
same,minimum inhibitory concentration (MIC),[9],4 µg/mL
same,minimum inhibitory concentration (MIC),E. faecium ATCC 35667,2 µg/mL
